Reference: patent publication US9302999B2, “Substituted triazoles as herbicides” (E. I. DU PONT DE NEMOURS AND COMPANY, priority 2012, dated 2016)

What was measured:
Type in all cases: in vivo
[1] = test system: wheat (Triticum aestivum); assay: Test A pre-/postemergence: wheat; details: for Wheat plant response rating: visual rating on 0 to 100 scale (0 no effect, 100 complete control), approximately ten days
Summary of the method: (§1)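 Injury is scored visually on a scale where 0 means no effect and 100 complete control, comparing treated with untreated plants after approximately ten greenhouse days. Both preemergence and postemergence applications are made at the same time.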

[2] = test system: morningglory (Ipomoea spp.); assay: Test A pre-/postemergence: morningglory; details: for Morningglory plant response rating: visual rating on 0 to 100 scale (0 no effect, 100 complete control), approximately ten days
Summary of the method: as §1

corn (Zea mays) = assay: Test A pre-/postemergence: corn; details: for Corn plant response rating: Postemergence; for Plant response rating, Corn: Preemergence
Summary of the method: as §1

[3] = test system: large crabgrass (Digitaria sanguinalis); assay: Test C pre-/postemergence: large crabgrass
Summary of the method: (§2)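 Visual injury scored 0–100 (100 = complete control) against untreated controls after 13–15 greenhouse days. Surfactant-containing solvent formulations applied either to soil after sowing (loam/sand) or over 1- to 4-leaf plants, 2–18 cm tall.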

[4] = test system: pigweed (Amaranthus retroflexus); assay: Test C pre-/postemergence: pigweed
Summary of the method: as §2

[5] = test system: galium (catchweed bedstraw, Galium aparine); assay: Test C pre-/postemergence: galium
Summary of the method: as §2

[6] = test system: johnsongrass (Sorghum halepense); assay: Test C pre-/postemergence: johnsongrass
Summary of the method: as §2

[7] = test system: ragweed (common ragweed, Ambrosia elation); assay: Test C pre-/postemergence: ragweed
Summary of the method: as §2

[8] = test system: velvetleaf (Abutilon theophrasti); assay: Test C pre-/postemergence: velvetleaf
Summary of the method: as §2

kochia (Kochia scoparia) = assay: Test C pre-/postemergence: kochia
Summary of the method: as §2

[9] = test system: ryegrass, Italian (Italian ryegrass, Lolium multiflorum); assay: Test C pre-/postemergence: ryegrass, Italian
Summary of the method: as §2

[10] = test system: foxtail, giant (giant foxtail, Setaria faberii); assay: Test C pre-/postemergence: foxtail, giant
Summary of the method: as §2

[11] = Postemergence, 125 g ai/ha, 0 to 100 scale, 0 is no effect, 100 is complete control
[12] = Preemergence, 125 g ai/ha, 0 to 100 scale where 0 is no effect and 100 is complete control
[13] = Preemergence, 500 g ai/ha, 0 to 100 scale (0 no effect, 100 complete control)
[14] = 125 g ai/ha, 0 to 100 scale, 0 is no effect, 100 is complete control
[15] = 500 g ai/ha, visual rating on 0 to 100 scale (0 no effect, 100 complete control), approximately ten days
[16] = 125 g ai/ha, 0 to 100 scale where 0 is no effect and 100 is complete control
[17] = 500 g ai/ha, 0 to 100 scale (0 no effect, 100 complete control)
[18] = Postemergence, 31 g ai/ha, scale 0 to 100 (0 no effect, 100 complete control)
[19] = Postemergence, 62 g ai/ha, scale 0 to 100 (0 no effect, 100 complete control)
[20] = Postemergence, 125 g ai/ha, scale 0 to 100, 0 no effect, 100 complete control
[21] = Postemergence, 250 g ai/ha, scale 0 to 100
[22] = Preemergence, 31 g ai/ha, scale of 0 to 100, 0 is no effect, 100 is complete control
[23] = Preemergence, 62 g ai/ha, scale of 0 to 100, 0 is no effect, 100 is complete control
[24] = Preemergence, 125 g ai/ha, scale 0 to 100, 0 no effect, 100 complete control
[25] = Preemergence, 250 g ai/ha, scale 0 to 100, 0 no effect, 100 complete control

SMILES: Cc1nn(-c2ccnc(C(F)(F)F)c2)nc1Cc1ccnc(C(F)(F)F)c1 [Compound 137]
- Plant response rating, Wheat [1, 11]: 20
- Wheat plant response rating ([1]; Postemergence, 500 g ai/ha): 30
- Plant response rating, Wheat [1, 12]: 0
- Plant response rating, Wheat [1, 13]: 0
- Plant response rating, Morningglory [2, 11]: 80
- Morningglory plant response rating ([2]; Postemergence, 500 g ai/ha): 100
- Plant response rating, Morningglory [2, 12]: 40
- Plant response rating, Morningglory [2, 13]: 60
- Corn plant response rating (corn (Zea mays); [14]): 20
- Corn plant response rating (corn (Zea mays); [15]): 30
- Plant response rating, Corn (corn (Zea mays); [16]): 0
- Plant response rating, Corn (corn (Zea mays); [17]): 0
- Plant response rating, Crabgrass, Large [3, 18]: 15
- Plant response rating, Crabgrass, Large [3, 19]: 40
- Plant response rating, Crabgrass, Large [3, 20]: 40
- Plant response rating, Crabgrass, Large [3, 21]: 65
- Plant response rating, Pigweed [4, 18]: 98
- Plant response rating, Pigweed [4, 19]: 100
- Plant response rating, Pigweed [4, 20]: 100
- Plant response rating, Pigweed [4, 21]: 100
- Plant response rating, Galium [5, 18]: 45
- Plant response rating, Galium [5, 19]: 70
- Plant response rating, Galium [5, 20]: 70
- Plant response rating, Galium [5, 21]: 70
- Plant response rating, Johnsongrass [6, 18]: 5
- Plant response rating, Johnsongrass [6, 19]: 40
- Plant response rating, Johnsongrass [6, 20]: 80
- Plant response rating, Johnsongrass [6, 21]: 90
- Plant response rating, Ragweed [7, 18]: 65
- Plant response rating, Ragweed [7, 20]: 75
- Plant response rating, Ragweed [7, 21]: 85
- Plant response rating, Velvetleaf [8, 18]: 35
- Plant response rating, Velvetleaf [8, 19]: 55
- Plant response rating, Velvetleaf [8, 20]: 55
- Plant response rating, Velvetleaf [8, 21]: 70
- Plant response rating, Kochia (kochia (Kochia scoparia); [18]): 90
- Plant response rating, Kochia (kochia (Kochia scoparia); [19]): 90
- Plant response rating, Kochia (kochia (Kochia scoparia); [20]): 90
- Plant response rating, Kochia (kochia (Kochia scoparia); [21]): 90
- Plant response rating, Ryegrass, Italian [9, 18]: 35
- Plant response rating, Ryegrass, Italian [9, 19]: 55
- Plant response rating, Ryegrass, Italian [9, 20]: 65
- Plant response rating, Ryegrass, Italian [9, 21]: 90
- Plant response rating, Foxtail, Giant [10, 18]: 10
- Plant response rating, Foxtail, Giant [10, 19]: 40
- Plant response rating, Foxtail, Giant [10, 21]: 50

SMILES: Fc1ccc(-n2nc(Cc3ccnc(C(F)(F)F)c3)c(OCC(F)(F)F)n2)cc1 [Compound 142]
- Plant response rating, Wheat [1, 11]: 80
- Wheat plant response rating ([1]; Postemergence, 500 g ai/ha): 80
- Plant response rating, Wheat [1, 12]: 70
- Plant response rating, Wheat [1, 13]: 80
- Plant response rating, Morningglory [2, 11]: 100
- Morningglory plant response rating ([2]; Postemergence, 500 g ai/ha): 100
- Plant response rating, Morningglory [2, 12]: 50
- Plant response rating, Morningglory [2, 13]: 80
- Corn plant response rating (corn (Zea mays); [14]): 50
- Corn plant response rating (corn (Zea mays); [15]): 80
- Plant response rating, Corn (corn (Zea mays); [16]): 30
- Plant response rating, Corn (corn (Zea mays); [17]): 80
- Plant response rating, Crabgrass, Large [3, 18]: 65
- Plant response rating, Crabgrass, Large [3, 19]: 80
- Plant response rating, Crabgrass, Large [3, 20]: 95
- Plant response rating, Crabgrass, Large [3, 21]: 95
- Plant response rating, Crabgrass, Large [3, 22]: 100
- Plant response rating, Crabgrass, Large [3, 23]: 100
- Plant response rating, Crabgrass, Large [3, 24]: 100
- Plant response rating, Crabgrass, Large [3, 25]: 100
- Plant response rating, Pigweed [4, 18]: 98
- Plant response rating, Pigweed [4, 19]: 98
- Plant response rating, Pigweed [4, 20]: 98
- Plant response rating, Pigweed [4, 21]: 98
- Plant response rating, Pigweed [4, 22]: 98
- Plant response rating, Pigweed [4, 23]: 98
- Plant response rating, Pigweed [4, 24]: 100
- Plant response rating, Pigweed [4, 25]: 100
- Plant response rating, Galium [5, 18]: 80
- Plant response rating, Galium [5, 19]: 80
- Plant response rating, Galium [5, 20]: 90
- Plant response rating, Galium [5, 21]: 90
- Plant response rating, Galium [5, 22]: 60
- Plant response rating, Galium [5, 23]: 80
- Plant response rating, Galium [5, 24]: 100
- Plant response rating, Galium [5, 25]: 100
- Plant response rating, Johnsongrass [6, 18]: 55
- Plant response rating, Johnsongrass [6, 19]: 70
- Plant response rating, Johnsongrass [6, 20]: 80
- Plant response rating, Johnsongrass [6, 21]: 80
- Plant response rating, Johnsongrass [6, 22]: 90
- Plant response rating, Johnsongrass [6, 23]: 98
- Plant response rating, Johnsongrass [6, 24]: 100
- Plant response rating, Johnsongrass [6, 25]: 100
- Plant response rating, Ragweed [7, 18]: 65
- Plant response rating, Ragweed [7, 19]: 70
- Plant response rating, Ragweed [7, 20]: 75
- Plant response rating, Ragweed [7, 21]: 75
- Plant response rating, Ragweed [7, 22]: 40
- Plant response rating, Ragweed [7, 23]: 40
- Plant response rating, Ragweed [7, 24]: 70
- Plant response rating, Ragweed [7, 25]: 80
- Plant response rating, Velvetleaf [8, 18]: 30
- Plant response rating, Velvetleaf [8, 19]: 50
- Plant response rating, Velvetleaf [8, 20]: 55
- Plant response rating, Velvetleaf [8, 21]: 75
- Plant response rating, Velvetleaf [8, 22]: 35
- Plant response rating, Velvetleaf [8, 23]: 75
- Plant response rating, Velvetleaf [8, 24]: 80
- Plant response rating, Velvetleaf [8, 25]: 100
- Plant response rating, Kochia (kochia (Kochia scoparia); [18]): 80
- Plant response rating, Kochia (kochia (Kochia scoparia); [19]): 90
- Plant response rating, Kochia (kochia (Kochia scoparia); [20]): 95
- Plant response rating, Kochia (kochia (Kochia scoparia); [21]): 95
- Plant response rating, Kochia (kochia (Kochia scoparia); [22]): 55
- Plant response rating, Kochia (kochia (Kochia scoparia); [23]): 80
- Plant response rating, Kochia (kochia (Kochia scoparia); [24]): 98
- Plant response rating, Kochia (kochia (Kochia scoparia); [25]): 100
- Plant response rating, Ryegrass, Italian [9, 18]: 10
- Plant response rating, Ryegrass, Italian [9, 19]: 40
- Plant response rating, Ryegrass, Italian [9, 20]: 50
- Plant response rating, Ryegrass, Italian [9, 21]: 50
- Plant response rating, Ryegrass, Italian [9, 22]: 30
- Plant response rating, Ryegrass, Italian [9, 23]: 90
- Plant response rating, Ryegrass, Italian [9, 24]: 90
- Plant response rating, Ryegrass, Italian [9, 25]: 90
- Plant response rating, Foxtail, Giant [10, 18]: 20
- Plant response rating, Foxtail, Giant [10, 19]: 75
- Plant response rating, Foxtail, Giant [10, 20]: 80
- Plant response rating, Foxtail, Giant [10, 21]: 90
- Plant response rating, Foxtail, Giant [10, 22]: 100
- Plant response rating, Foxtail, Giant [10, 23]: 100
- Plant response rating, Foxtail, Giant [10, 24]: 100
- Plant response rating, Foxtail, Giant [10, 25]: 100
